# Patent publication US20080242700A1, “Methods and Compositions for Selectin Inhibition” (Wyeth, priority 2007, published 2008)
# Target: T1, P-selectin/PSGL-1 interaction (Homo sapiens, UniProt P16109)
# T1 construct: comprised of the lectin and epidermal growth factor-like (EGF) domains expressed in CHO cells; made in house; host or cells: CHO cells (P-LE)
# T1 sequence (P16109 42-198): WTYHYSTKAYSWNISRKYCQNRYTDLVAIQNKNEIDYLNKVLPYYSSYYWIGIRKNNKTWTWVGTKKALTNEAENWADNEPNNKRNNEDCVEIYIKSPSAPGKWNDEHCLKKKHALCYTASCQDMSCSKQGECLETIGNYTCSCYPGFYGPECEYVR
# Experiment: Biacore P-selectin/PSGL-1 inhibition assay (surface plasmon resonance)
# Type: binding
# Details: for inhibition at 250 µM: 250 uM test compound, 500 nM P.LE, immobilized biotinylated PSGL-1 19ek, 10% DMSO, pH 7.4, 25° C.
# Experimental: Surface plasmon resonance assays were performed on a Biacore 3000 instrument (Biacore Inc. Piscataway, N.J.) at 25° C. at a flow rate of 30 μL/minute and each assay consisted of a 60-second equilibration, a 60-μL sample injection (kinject), and a 300-second dissociation.
# A purified, monomeric, truncated form of human PSGL-1, “19ek”, that contained all the necessary P-selectin binding determinants (see Goetz, et al., J Cell Biol., 1997, 137: 509-519; and Sako, et al., Cell, 1995, 83: 323-331) was biotinylated via amine chemistry (Sulfo-NHS-LC-Biotin, Peirce) at a unique C-terminal lysine residue (see Somers, et al., Cell, 2000, 103: 467-479) and immobilized on a Biacore SA sensor chip (Biacore Inc.), using an HBS-EP buffer (Biacore Inc.), and the target 600-700 RU. The coated chip was re-equilibrated with an HBS-P buffer (Biacore Inc.) to which 1 mM CaCl2 and 1 mM MgCl2 (both from Fisher) were added to ensure sufficient calcium for the calcium-dependent interaction between the receptor and the ligand.
# Test compounds were incubated for 1 hour in a 1.1× Biacore assay buffer. Each solution was centrifuged through a 0.2 μm filter, using a 96-well plate format (Millipore). Glycyrrhizin tri-sodium salt (TCl) was prepared as a positive control in parallel with the test compounds, in the same manner described above.
# A soluble recombinant truncated form of human P-selectin, P-LE, comprised of the lectin and epidermal growth factor-like (EGF) domains expressed in CHO cells (see Somers, et al., Cell, 2000, 103: 467-479) was added to each filtered test compound solution. Final concentrations of reagents were 500 nM P.LE, 250 or 500 μM test compound (depending on structure) or 1 mM glycyrrhizin, 10% DMSO, and 1× Biacore buffer ([…], 150 mM NaCl, 1 mM CaCl2, and 1 mM MgCl2 (all reagents from Fisher)), with a pH of 7.4. Compounds active at 250 μM were titrated to further define activity. Test samples were supplied to the Biacore instrument in a 96-well plate.
# The Biacore raw data file was exported as a text file to an Excel spreadsheet, where the buffer blanks bracketing the samples were averaged for each Biacore instrument flow cell (Fc), and subtracted from the averaged uninhibited P.LE samples and from all the other samples. The reference signal from Fc1 (uncoated) was then subtracted from its corresponding active (coated) signal for each injection, a process known as double referencing (see Myszka, J Mol. Recognit., 1999, 12(5): 279-284). The percent inhibition of binding was calculated by dividing the reference-subtracted inhibited signal by the reference-subtracted uninhibited signal, subtracting this value from 1, and multiplying the resulting value by 100. The replicate percent inhibition values were averaged and expressed as the mean±standard deviation. The inter-experiment standard deviation of calculated percent inhibitions in the Biacore assay was ±5.
Compound,inhibition at 250 µM [%],IC50 (positive control in the Biacore assay) [µM]
"Cc1ccc2c(C(=O)O)c(O)c(C3Cc4ccccc43)nc2c1C (stereo not drawn) [Compound 2, 2-(1,2-dihydrocyclobutabenzen-1-yl)-3-hydroxy-7,8-dimethyl-quinolin-4-carboxylic acid]",17,–
"Cc1ccc2c(C(=O)O)c(O)c(C3Cc4ccccc4C3)nc2c1C [Compound 3, 3-hydroxy-2-indan-2-yl-7,8-dimethyl-quinolin-4-carboxylicacid]",11,–
"CC(C)c1cccc2c(C(=O)O)c(O)c(C3Cc4ccccc4C3)nc12 [Compound 4, 3-hydroxy-2-indan-2-yl-8-isopropyl-quinolin-4-carboxylicacid]",48,–
"CC1(C)[C@@H](O[C@H]2O[C@H](C(=O)O)[C@@H](O)[C@H](O)[C@H]2O[C@@H]2O[C@H](C(=O)O)[C@@H](O)[C@H](O)[C@H]2O)CC[C@]2(C)[C@H]3C(=O)C=C4[C@@H]5C[C@@](C)(C(=O)O)CC[C@]5(C)CC[C@@]4(C)[C@]3(C)CC[C@@H]12 [Glycyrrhizin, reference compound]",–,1000

# Continued, values first:
inhibition at 250 µM [%],IC50 (positive control in the Biacore assay) [µM],Compound
45,–,"O=C(O)c1c(O)c(C2Cc3ccccc32)nc2c(C(F)(F)F)cccc12 (stereo not drawn) [Compound 1, 2-(1,2-dihydrocyclobutabenzen-1-yl)-3-hydroxy-8-(trifluoro-methyl)quinoline-4-carboxylic acid]"
35,–,"O=C(O)c1c(O)c(C2Cc3ccccc3C2)nc2c(C(F)(F)F)cccc12 [Compound 5, 3-hydroxy-2-indan-2-yl-8-trifluoromethyl-quinoline-4-carboxylic acid]"
